From ChEMBL document CHEMBL1154341, “Inhibition of the dimerization and active site of HIV-1 protease by secondary metabolites from the Vietnamese mushroom Ganoderma colossum” (J Nat Prod, 2009)
The source made the active and inactive calls. The rule behind the calls is not given here.

Legend:
Protease [1] = biological target: T1, Protease (Human immunodeficiency virus 1, UniProt Q9YQ12); assay: Inhibition of HIV1 protease
[2] = Inhibition of HIV2 protease; parameters: species or system Human immunodeficiency virus 2
[3] = biological target: Human immunodeficiency virus type 1 integrase (Human immunodeficiency virus 1, UniProt Q7ZJM1); assay: Inhibition of HIV1 integrase strand transfer activity
[4] = biological target: Protease (Human immunodeficiency virus 1) (UniProt Q9YQ12); assay: (§1) Inhibition of HIV1 protease dimerization by Zhang-Poorman kinetic assay
Protease [5] = biological target: T1, Protease; assay: Inhibition of recombinant HIV1 protease after 30 mins by reverse phase HPLC
Protease [6] = biological target: T1, Protease; assay: Competitive inhibition of HIV1 protease by Lineweaver-Burke plot analysis
Protease [7] = biological target: T1, Protease; assay: as §1

Q: For `CC(C)c1cc2c(c(O)c1O)[C@@]1(C(=O)O)CCCC(C)(C)[C@@H]1CC2` [CARNOSIC ACID], which IC50 (Protease [1]) is on record?
A: 0.24 µM

Q: Which IC50 [2] does the source give for `COc1cc(/C=C/C(=O)CC(=O)/C=C/c2ccc(O)c(OC)c2)ccc1O` [CURCUMIN] here?
A: 250 µM

Q: What about the IC50 (Protease [1]) of the same compound?
A: 100 µM

Q: And the IC50 [3]?
A: 40 µM

Q: Which results are given for `CC(C)=CCC/C(C)=C/CC/C(=C/Cc1cc(O)ccc1O)C(=O)O` [GANOMYCIN B]?
A: inhibition [4]: inactive; IC50 (Protease [5]): 2.9 µM; Ki (Protease [6]): 4 µM

Q: Which IC50 (Protease [5]) does the source give for `CC(C)=CCC/C(C)=C/CCC1=C[C@@H](c2cc(O)ccc2O)OC1=O` [GANOMYCIN I] here?
A: 21.9 µM

Q: For `CC1=CC[C@H]([C@@H](C)[C@H]2CC[C@@]3(C)C4=C(C=C5C=CC(=O)OC(C)(C)[C@@H]5CC4)CC[C@]23C)OC1=O` [SCHISANLACTONE A], which Ki (Protease [7]) is on record?
A: 17.5 µM
